Columns and labels:
Settings in all cases: 72 h
Vero E6 [1] = experiment: drug sensitivity score (DSS) for viability; higher = more toxic; extreme values may be limits of the assay
U2OS [2] = experiment: as above
Calu-3 [3] = experiment: as above
HepG2 [4] = experiment: as above
Caco-2 [5] = experiment: relative viability EC50 (midpoint between 100% and the lowest measured viability); higher = less toxic
Vero E6 [6] = experiment: as above
U2OS [7] = experiment: as above
HepG2 [8] = experiment: as above
Caco-2 [9] = experiment: drug sensitivity score (DSS) for viability; higher = more toxic; extreme values may be limits of the assay
Caco-2 [10] = experiment: cell viability relative to DMSO; higher = less toxic
Vero E6 [11] = experiment: as above
U2OS [12] = experiment: as above
HepG2 [13] = experiment: as above
Calu-3 [14] = experiment: as above

Structure (SMILES)	drug sensitivity score (Vero E6 [1])	drug sensitivity score (U2OS [2])	drug sensitivity score (Calu-3 [3])	drug sensitivity score (HepG2 [4])	relative viability EC50 (Caco-2 [5])	relative viability EC50 (Vero E6 [6])	relative viability EC50 (U2OS [7])	relative viability EC50 (HepG2 [8])	drug sensitivity score (Caco-2 [9])	cell viability (Caco-2 [10]; 1 nM)	cell viability (Caco-2 [10]; 10 nM)	cell viability (Caco-2 [10]; 100 nM)	cell viability (Caco-2 [10]; 1000 nM)	cell viability (Caco-2 [10]; 10000 nM)	cell viability (Vero E6 [11]; 1 nM)	cell viability (Vero E6 [11]; 10 nM)	cell viability (Vero E6 [11]; 100 nM)	cell viability (Vero E6 [11]; 1000 nM)	cell viability (Vero E6 [11]; 10000 nM)	cell viability (U2OS [12]; 1 nM)	cell viability (U2OS [12]; 10 nM)	cell viability (U2OS [12]; 100 nM)	cell viability (U2OS [12]; 1000 nM)	cell viability (U2OS [12]; 10000 nM)	cell viability (HepG2 [13]; 1 nM)	cell viability (HepG2 [13]; 10 nM)	cell viability (HepG2 [13]; 100 nM)	cell viability (HepG2 [13]; 1000 nM)	cell viability (HepG2 [13]; 10000 nM)	cell viability (Calu-3 [14]; 1 nM)	cell viability (Calu-3 [14]; 10 nM)	cell viability (Calu-3 [14]; 100 nM)	cell viability (Calu-3 [14]; 1000 nM)	cell viability (Calu-3 [14]; 10000 nM)
CCCCCCCN(CC)CCC[C@@H](O)c1ccc(NS(C)(=O)=O)cc1 (racemic) [ibutilide]	0	0	0	0	–	–	–	–	–	–	–	–	–	–	–	–	–	–	–	–	–	–	–	–	–	–	–	–	–	–	–	–	–	–
N=C(Nc1ccccc1)Nc1ccccc1 [diphenylguanidine]	0	0	–	0	> 10 µM	> 10 µM	> 10 µM	> 10 µM	0	92.4%	93.5%	91.5%	94.2%	107%	100%	95.1%	103%	91.8%	104%	98.4%	98%	95.3%	100%	106%	117%	92.6%	103%	101%	101%	–	–	–	–	–
CCOC(=O)c1cc2ccc(O)cc2oc1=O [YZ9]	0	0	–	0	> 10 µM	> 10 µM	> 10 µM	> 10 µM	0	98.6%	94.3%	102%	98.8%	99.5%	92%	95.5%	96.3%	101%	102%	99.3%	94.7%	92.9%	103%	104%	98.6%	103%	107%	96.5%	117%	–	–	–	–	–
C[C@H](Nc1ncnc2[nH]cnc12)c1nc2ccc(F)cc2c(=O)n1-c1ccccc1 [acalisib]	1.5	0	2.7	0.9	–	> 10 µM	> 10 µM	> 10 µM	0.9	105%	104%	91.6%	102%	74.9%	104%	101%	95.8%	89.9%	76.2%	109%	104%	106%	99.4%	94.3%	106%	107%	109%	93.7%	83.6%	107%	103%	104%	93.8%	65.1%
O=C(NCC(=O)N1CC[C@H](N[C@H]2CC[C@@](O)(c3ccc(-c4ncccn4)cn3)CC2)C1)c1cccc(C(F)(F)F)c1	0	0	–	0	> 10 µM	> 10 µM	> 10 µM	> 10 µM	0	104%	108%	92.7%	92.7%	96.8%	107%	102%	101%	99.4%	98.7%	97.8%	105%	97.7%	101%	96.4%	103%	97.6%	105%	97.4%	100%	–	–	–	–	–
